Results published in PMC5888870 (2018).
Blank lines part the entries; values can stand above or below the compound they belong to.

Legend:
[1] = tested on: 5'-biotin-TEG KRAS (DNA, G4) AGGGCGGTGTGGGAAGAGGGAAGAGGGGGAGGCAG; experiment: SPR; details: 30 mM KCl; 10 mM Tris pH 6.6, 3% DMSO, 0.01% Tween-20; no binding at 20 μM
[2] = tested on: KRAS G4 (DNA, G4) AGGGCGGTGTGGGAAGAGGGAAGAGGGGGAGGCAG; experiment: CD thermal melt; details: 30 mM KCl; 10 mM Tris pH 6.6, 1% DMSO; 10 μM DNA, 40 μM compound
[3] = tested on: shortened KRAS oligonucleotide (DNA, G4) AGGGCGGTGTGGGAATAGGGAA; experiment: 1H NMR titration; details: 50 mM KCl, 100 μM DNA
[4] = tested on: Alexafluor647-KRAS (DNA, G4) AGGGCGGTGTGGGAAGAGGGAAGAGGGGGAGGCAG; experiment: fluorescence intensity titration; details: 50 mM KCl, 25 mM Tris pH 6.4, 2-3% DMSO, room temperature; for KDapp: apparent
[5] = tested on: 5'-biotin-TEG KRAS (DNA, G4) AGGGCGGTGTGGGAAGAGGGAAGAGGGGGAGGCAG; experiment: SPR, steady state; details: 30 mM KCl; 10 mM Tris pH 6.6, 3% DMSO, 0.01% Tween-20; apparent; text b35 prints 12.0 ± 0.5
[6] = tested on: shortened KRAS oligonucleotide (DNA, G4) AGGGCGGTGTGGGAATAGGGAA; experiment: WaterLOGSY NMR; details: 50 mM KCl, 25 mM Tris-d11 pH 6.6, 10% DMSO-d6, 293 K, 100 μM compound, 1 μM DNA
[7] = tested on: KRAS G4 (DNA, G4) AGGGCGGTGTGGGAAGAGGGAAGAGGGGGAGGCAG; experiment: 13C NMR; details: 50 mM KCl; 25 mM Tris-d11 pH 6.6, 10% DMSO-d6, 293 K
[8] = tested on: dsDNA (DNA, duplex) CAATCGGATCGAATTCGATCCGATTG; experiment: CD thermal melt; details: 30 mM KCl; 10 mM Tris pH 6.6, 1% DMSO; 10 μM DNA, 40 μM compound
[9] = tested on: 5'-biotin-TEG KRAS (DNA, G4) AGGGCGGTGTGGGAAGAGGGAAGAGGGGGAGGCAG; experiment: SPR, Langmuir kinetic fit; details: 30 mM KCl; 10 mM Tris pH 6.6, 3% DMSO, 0.01% Tween-20
[10] = tested on: Alexafluor647-KRAS (DNA, G4) AGGGCGGTGTGGGAAGAGGGAAGAGGGGGAGGCAG; experiment: small molecule microarray; details: 100 mM KCl; PBST, room temperature, 500 nM DNA; immobilised compound
[11] = tested on: Alexafluor647-AKTIP (RNA, G4) GGGGUGGGGCGGGGCGGGG; experiment: small molecule microarray; details: 100 mM KCl; PBST, room temperature, 500 nM RNA; immobilised compound
[12] = tested on: Alexafluor647-BCl2 (DNA, G4) AGGGGCGGGCGCGGGAGGAAGGGGGCGGGA; experiment: small molecule microarray; details: 100 mM KCl; PBST, room temperature, 500 nM DNA; immobilised compound
[13] = tested on: Alexafluor647-MYC (DNA, G4) AGGGTGGGGAGGGTGGGG; experiment: small molecule microarray; details: 100 mM KCl; PBST, room temperature, 500 nM DNA; immobilised compound
[14] = tested on: Alexafluor647-MYB (DNA, G4) GGAGGAGGAGGTCACGGAGGAGGAGGAGAAGGAGGAGGAGGA; experiment: small molecule microarray; details: 100 mM KCl; PBST, room temperature, 500 nM DNA; immobilised compound
[15] = tested on: Alexafluor647-RB1 (DNA, G4) CGGGGGGTTTTGGGCGGC; experiment: small molecule microarray; details: 100 mM KCl; PBST, room temperature, 500 nM DNA; immobilised compound
[16] = tested on: Alexafluor647-VEGF (DNA, G4) CGGGGCGGGCCGGGGGCGGGGT; experiment: small molecule microarray; details: 100 mM KCl; PBST, room temperature, 500 nM DNA; immobilised compound
[17] = tested on: Alexafluor647-c-KIT (DNA, G4) AGGGAGGGCGCTGGGAGGAGGG; experiment: small molecule microarray; details: 100 mM KCl; PBST, room temperature, 500 nM DNA; immobilised compound

KD [1]: > 20 µM | ΔTm [2]: < 1 °C | binding ([3]; 25 mM Tris-d11 pH 6.6, 10% DMSO-d6, 293 K, weak, nonspecific): weak | KDapp ([4]; only minimal fluorescence changes): > 200 µM
SMILES: CC(C)NC(=N)NC(=N)Nc1ccc(Cl)cc1

ΔTm [2]: 7.1 ± 0.6 °C | binding ([3]; 25 mM Tris-d11 pH 6.6, 10% DMSO-d6, 293 K, moderate, nonspecific): yes | KDapp [5]: 12.1 ± 0.5 µM | KDapp ([4]; 50 nM DNA): 19.3 ± 11.0 µM
SMILES: CCCCC(CC)CNC(=N)NC(=N)NCCCCCCNC(=N)NC(=N)NCC(CC)CCCC (stereo not shown)

binding ([6]; internal control): no
SMILES: CN[C@H](C(=O)O)C(C)C

Continued, compound first:

SMILES: N=C(NCCCCCCNC(=N)NC(=N)Nc1ccc(Cl)cc1)NC(=N)Nc1ccc(Cl)cc1
binding [7]: yes | binding [6]: yes | ΔTm [2]: 13.0 ± 0.7 °C | binding [8]: no | binding ([3]; 25 mM Tris-d11 pH 6.6, 10% D2O, 5% DMSO-d6, 293 K): yes | KD [9]: 1.1 ± 0.5 µM | KD ([4]; 50 nM DNA): 0.0055 ± 0.0029 mM

SMILES: NCCOc1cc(C(=O)Nc2cc(OCCN)c3ccccc3n2)nc(C(=O)Nc2cc(OCCN)c3ccccc3n2)c1
ΔTm [2]: 31.6 ± 2.6 °C | binding [10]: yes | binding [11]: yes | binding [12]: yes | binding [13]: yes | binding [14]: yes | binding [15]: yes | binding [16]: yes | binding [17]: yes
